Target: T1, Flavocytochrome b2 (Fcb2, EC 1.1.2.3) (Ogataea polymorpha, UniProt A0A9P8PNE1)
T1 construct: gene OGATHE_001663
Test: chronoamperometry on Fcb2/graphite electrode biosensor
Assay type: biochemical
Settings: immobilised enzyme (0.3 units, Nafion film, no nanoparticles); 1 mM PMS; +200 mV vs Ag/AgCl; apparent value of bioelectrode

T1 sequence (A0A9P8PNE1 55-553): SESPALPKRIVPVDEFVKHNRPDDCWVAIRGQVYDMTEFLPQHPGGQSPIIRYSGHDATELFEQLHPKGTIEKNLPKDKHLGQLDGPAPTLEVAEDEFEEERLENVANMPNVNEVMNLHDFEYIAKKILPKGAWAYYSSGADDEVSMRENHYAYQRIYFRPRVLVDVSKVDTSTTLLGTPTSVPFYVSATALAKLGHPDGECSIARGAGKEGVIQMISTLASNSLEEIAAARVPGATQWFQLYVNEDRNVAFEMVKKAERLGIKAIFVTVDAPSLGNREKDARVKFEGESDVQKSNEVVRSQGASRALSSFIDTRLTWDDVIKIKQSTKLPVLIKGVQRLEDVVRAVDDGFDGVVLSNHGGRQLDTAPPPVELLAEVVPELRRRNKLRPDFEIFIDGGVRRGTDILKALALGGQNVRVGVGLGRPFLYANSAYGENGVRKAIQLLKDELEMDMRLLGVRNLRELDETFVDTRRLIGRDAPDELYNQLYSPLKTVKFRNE

SMILES: C[C@H](O)C(=O)O [L-lactate]
- KM^app: Calibration curves illustrating the current dependence on the L-lactate concentration for the ABS

Source: publication PMC11591947, “Peroxidase-like Nanoparticles of Noble Metals Stimulate Increasing Sensitivity of Flavocytochrome b2-Based L-Lactate Biosensors” (Biosensors, 2024)
